# Data reported in ChEMBL document CHEMBL1201862, “PubChem BioAssay data set” (2004).
# Calls of active or inactive are those of the source.
# Tests used:
# [1] = molecular target: Intestinal-type alkaline phosphatase (Mus musculus, UniProt P24822); experiment: PubChem AID 488785; type: functional
# [2] = molecular target: T1, Alkaline phosphatase, tissue-nonspecific isozyme (Homo sapiens, UniProt P05186); experiment: TNAP enzyme inhibition by screening hits, dose response, selectivity assay for mouse IAP inhibitor project, biochemical, human TNAP, uHTS hits (AID 488906); type: functional
# T1 sequence (P05186 whole entry): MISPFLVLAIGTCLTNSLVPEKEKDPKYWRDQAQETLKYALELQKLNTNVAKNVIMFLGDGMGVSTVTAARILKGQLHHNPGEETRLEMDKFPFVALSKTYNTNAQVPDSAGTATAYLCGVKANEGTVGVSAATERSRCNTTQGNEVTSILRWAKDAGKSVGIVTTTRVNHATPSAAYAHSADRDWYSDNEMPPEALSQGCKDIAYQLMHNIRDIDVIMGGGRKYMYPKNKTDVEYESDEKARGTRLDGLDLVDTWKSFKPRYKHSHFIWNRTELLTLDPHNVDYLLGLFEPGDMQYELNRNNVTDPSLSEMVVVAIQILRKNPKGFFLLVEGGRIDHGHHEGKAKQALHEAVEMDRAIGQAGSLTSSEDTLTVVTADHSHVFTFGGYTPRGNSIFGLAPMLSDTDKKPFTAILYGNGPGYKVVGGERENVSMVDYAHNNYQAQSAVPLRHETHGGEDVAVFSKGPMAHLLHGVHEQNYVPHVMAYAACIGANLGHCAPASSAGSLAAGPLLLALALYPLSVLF
# [3] = molecular target: Intestinal-type alkaline phosphatase (Homo sapiens, UniProt P09923); experiment: activation of human intestinal alkaline phosphatase – biochemical, dose response (AID 488873); type: functional
# [4] = cytotoxicity toward NIH3T3 fibroblasts, dose response, counter-screen, cell-based, ATP luminescence, mouse fibroblasts (AID 2010); type: functional;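 also: cells exposed to compound for about 90 hours before reading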
# [5] = inhibitors of intracellular T. cruzi replication, confirmation, NIH3T3 host cells, beta-gal luminescence (AID 2044); type: functional, cell-based;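 also: intracellular parasites grown in NIH/3T3 mouse fibroblasts as host cells; luminescent beta-galactosidase reporter signal from transgenic T. cruzi replicating inside host cells; inhibitors lower the luminescence signal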
# [6] = Vero E6 cell cytotoxicity, dose response, cytotoxicity control for non-replicating M. tuberculosis project, secondary assay (AID 492998); type: functional, VeroE6; conditions: Vero C1008
# cells = type: functional
# [7] = molecular target: Voltage-dependent T-type calcium channel subunit alpha-1H (Homo sapiens, UniProt O95180); type: functional;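 also: channel activity triggered by adding a high calcium stimulation buffer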
# [8] = HepG2 cell cytotoxicity, dose response, cytotoxicity control for non-replicating M. tuberculosis project (AID 489018); type: functional; conditions: Mycobacterium tuberculosis
# [9] = THP-1 cell cytotoxicity, dose response, cytotoxicity control for non-replicating M. tuberculosis project (AID 489025); type: functional
# [10] = microbe, parasite or virus in culture; type: functional; conditions: Mycobacterium tuberculosis
# Protein skinhead-1 = molecular target: T2, Protein skinhead-1 (Caenorhabditis elegans, UniProt P34707); type: functional
# T2 sequence (P34707 whole entry): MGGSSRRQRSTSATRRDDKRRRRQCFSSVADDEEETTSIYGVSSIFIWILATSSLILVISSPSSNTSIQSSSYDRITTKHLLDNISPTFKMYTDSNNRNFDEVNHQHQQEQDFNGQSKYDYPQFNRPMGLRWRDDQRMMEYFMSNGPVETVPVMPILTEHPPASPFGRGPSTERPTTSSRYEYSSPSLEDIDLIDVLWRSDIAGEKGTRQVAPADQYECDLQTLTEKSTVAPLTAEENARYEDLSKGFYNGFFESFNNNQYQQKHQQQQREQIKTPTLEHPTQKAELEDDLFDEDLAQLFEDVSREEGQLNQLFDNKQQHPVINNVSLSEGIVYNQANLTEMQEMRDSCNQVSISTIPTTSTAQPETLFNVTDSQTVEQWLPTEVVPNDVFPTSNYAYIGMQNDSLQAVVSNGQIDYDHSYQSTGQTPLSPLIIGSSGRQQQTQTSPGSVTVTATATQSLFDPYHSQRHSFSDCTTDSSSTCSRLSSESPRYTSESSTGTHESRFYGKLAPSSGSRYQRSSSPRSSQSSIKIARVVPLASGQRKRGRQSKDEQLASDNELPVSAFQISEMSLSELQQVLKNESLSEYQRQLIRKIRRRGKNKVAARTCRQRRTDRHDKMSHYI
# [11] = Shn3 3'UTR reporter inhibitors, dose response, cell-based, Clone20 osteoblasts, firefly luciferase, cherry-picked (AID 624132); type: functional;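 also: firefly luciferase luminescence from reporter carrying the Shn3 3'UTR in osteoblasts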
# [12] = cytotoxicity in HEK-293T cells, dose response, cytotoxicity control for BCR NF-kB inhibitor project, luminescence, B-cell screen hits (AID 489021); type: functional, cell-based;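 also: HEK-293T cells carrying an NF-kB luciferase reporter; cells exposed to compound for about 14 hours before viability readout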
# [13] = HepG2 cell cytotoxicity, dose response, cytotoxicity control for Shn3 inhibitor project, CellTiter-Glo, cherry-picked (AID 624134); type: functional, cell-based
# [14] = control 3'UTR Renilla luciferase suppression, dose response, counter-screen for Shn3 inhibitor project, cell-based, Clone20-Shn3RL, cherry-picked (AID 624133); type: functional
# [15] = cytotoxicity toward DRD oncogenic fibroblasts, dose response, cell-based, non-viral oncogenic, luminescence (AID 1934); type: functional; conditions: Homo sapiens
# [16] = growth suppression of PTEN-null colon cells, dose response, cell-based, HCT116 PTEN knockout (AID 1047); type: functional;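 also: HCT116 colon tumor cells with PTEN knocked out; cells exposed to compound for 60 hours before readout; potency for loss of cell viability measured by luminescence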
# BJ [17] = experiment: cytotoxicity toward BJ-TERT fibroblasts, dose response, cell-based, RAS-independent, luminescence (AID 1933); type: functional; conditions: Homo sapiens
# BJ [18] = experiment: cells; type: functional, cell-based; conditions: Homo sapiens
# [19] = growth suppression of beta-catenin-knockout colon cells, dose response, cell-based, HCT116, human colon tumor (AID 1045); type: functional;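 also: HCT116 colon tumor cells with beta catenin knocked out; cells exposed to compound for 60 hours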
# BJ [20] = experiment: cytotoxicity toward BJ-TERT-LT-ST fibroblasts, dose response, cell-based, RAS-independent, luminescence (AID 1935); type: functional; conditions: Homo sapiens;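 also: BJ fibroblasts immortalized with TERT plus LT and ST oncogenes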
# [21] = molecular target: T3, Microphthalmia-associated transcription factor (Homo sapiens, UniProt O75030); experiment: TRPM1 promoter luciferase signal decrease, dose response, MITF inhibitor project, cell-based, SK-MEL-5, cherry-picked, set 3 (AID 493073); type: functional
# T3 sequence (O75030 whole entry): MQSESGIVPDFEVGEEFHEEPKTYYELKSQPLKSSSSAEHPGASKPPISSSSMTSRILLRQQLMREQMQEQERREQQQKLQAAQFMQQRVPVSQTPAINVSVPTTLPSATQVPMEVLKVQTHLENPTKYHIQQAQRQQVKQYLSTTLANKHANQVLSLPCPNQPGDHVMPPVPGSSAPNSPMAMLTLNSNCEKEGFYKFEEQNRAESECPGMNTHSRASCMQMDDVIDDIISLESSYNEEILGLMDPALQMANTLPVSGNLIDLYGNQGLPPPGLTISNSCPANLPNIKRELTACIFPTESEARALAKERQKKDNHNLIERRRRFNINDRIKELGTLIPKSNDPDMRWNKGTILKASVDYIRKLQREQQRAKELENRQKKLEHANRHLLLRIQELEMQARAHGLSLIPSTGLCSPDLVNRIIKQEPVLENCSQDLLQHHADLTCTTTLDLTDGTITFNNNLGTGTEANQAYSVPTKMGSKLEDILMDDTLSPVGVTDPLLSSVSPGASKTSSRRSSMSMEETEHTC
# Chain of Intestinal-type alkaline phosphatase (Homo sapiens, UniProt P09923) (P09923 whole entry): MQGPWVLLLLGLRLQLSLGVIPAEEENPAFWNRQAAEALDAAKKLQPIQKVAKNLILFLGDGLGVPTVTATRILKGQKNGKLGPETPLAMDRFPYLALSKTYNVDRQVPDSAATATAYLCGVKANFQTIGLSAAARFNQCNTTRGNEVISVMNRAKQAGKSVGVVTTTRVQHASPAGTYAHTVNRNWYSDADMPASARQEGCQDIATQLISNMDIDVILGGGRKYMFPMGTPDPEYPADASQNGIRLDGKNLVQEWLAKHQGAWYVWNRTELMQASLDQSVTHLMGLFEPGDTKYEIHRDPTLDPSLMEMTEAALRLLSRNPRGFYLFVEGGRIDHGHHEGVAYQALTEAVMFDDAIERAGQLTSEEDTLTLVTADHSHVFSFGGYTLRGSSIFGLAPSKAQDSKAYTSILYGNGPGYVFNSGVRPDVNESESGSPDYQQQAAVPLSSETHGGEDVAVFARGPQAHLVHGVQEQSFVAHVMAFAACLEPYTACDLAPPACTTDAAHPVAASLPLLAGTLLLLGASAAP
# Chain of Voltage-dependent T-type calcium channel subunit alpha-1H (O95180 whole entry): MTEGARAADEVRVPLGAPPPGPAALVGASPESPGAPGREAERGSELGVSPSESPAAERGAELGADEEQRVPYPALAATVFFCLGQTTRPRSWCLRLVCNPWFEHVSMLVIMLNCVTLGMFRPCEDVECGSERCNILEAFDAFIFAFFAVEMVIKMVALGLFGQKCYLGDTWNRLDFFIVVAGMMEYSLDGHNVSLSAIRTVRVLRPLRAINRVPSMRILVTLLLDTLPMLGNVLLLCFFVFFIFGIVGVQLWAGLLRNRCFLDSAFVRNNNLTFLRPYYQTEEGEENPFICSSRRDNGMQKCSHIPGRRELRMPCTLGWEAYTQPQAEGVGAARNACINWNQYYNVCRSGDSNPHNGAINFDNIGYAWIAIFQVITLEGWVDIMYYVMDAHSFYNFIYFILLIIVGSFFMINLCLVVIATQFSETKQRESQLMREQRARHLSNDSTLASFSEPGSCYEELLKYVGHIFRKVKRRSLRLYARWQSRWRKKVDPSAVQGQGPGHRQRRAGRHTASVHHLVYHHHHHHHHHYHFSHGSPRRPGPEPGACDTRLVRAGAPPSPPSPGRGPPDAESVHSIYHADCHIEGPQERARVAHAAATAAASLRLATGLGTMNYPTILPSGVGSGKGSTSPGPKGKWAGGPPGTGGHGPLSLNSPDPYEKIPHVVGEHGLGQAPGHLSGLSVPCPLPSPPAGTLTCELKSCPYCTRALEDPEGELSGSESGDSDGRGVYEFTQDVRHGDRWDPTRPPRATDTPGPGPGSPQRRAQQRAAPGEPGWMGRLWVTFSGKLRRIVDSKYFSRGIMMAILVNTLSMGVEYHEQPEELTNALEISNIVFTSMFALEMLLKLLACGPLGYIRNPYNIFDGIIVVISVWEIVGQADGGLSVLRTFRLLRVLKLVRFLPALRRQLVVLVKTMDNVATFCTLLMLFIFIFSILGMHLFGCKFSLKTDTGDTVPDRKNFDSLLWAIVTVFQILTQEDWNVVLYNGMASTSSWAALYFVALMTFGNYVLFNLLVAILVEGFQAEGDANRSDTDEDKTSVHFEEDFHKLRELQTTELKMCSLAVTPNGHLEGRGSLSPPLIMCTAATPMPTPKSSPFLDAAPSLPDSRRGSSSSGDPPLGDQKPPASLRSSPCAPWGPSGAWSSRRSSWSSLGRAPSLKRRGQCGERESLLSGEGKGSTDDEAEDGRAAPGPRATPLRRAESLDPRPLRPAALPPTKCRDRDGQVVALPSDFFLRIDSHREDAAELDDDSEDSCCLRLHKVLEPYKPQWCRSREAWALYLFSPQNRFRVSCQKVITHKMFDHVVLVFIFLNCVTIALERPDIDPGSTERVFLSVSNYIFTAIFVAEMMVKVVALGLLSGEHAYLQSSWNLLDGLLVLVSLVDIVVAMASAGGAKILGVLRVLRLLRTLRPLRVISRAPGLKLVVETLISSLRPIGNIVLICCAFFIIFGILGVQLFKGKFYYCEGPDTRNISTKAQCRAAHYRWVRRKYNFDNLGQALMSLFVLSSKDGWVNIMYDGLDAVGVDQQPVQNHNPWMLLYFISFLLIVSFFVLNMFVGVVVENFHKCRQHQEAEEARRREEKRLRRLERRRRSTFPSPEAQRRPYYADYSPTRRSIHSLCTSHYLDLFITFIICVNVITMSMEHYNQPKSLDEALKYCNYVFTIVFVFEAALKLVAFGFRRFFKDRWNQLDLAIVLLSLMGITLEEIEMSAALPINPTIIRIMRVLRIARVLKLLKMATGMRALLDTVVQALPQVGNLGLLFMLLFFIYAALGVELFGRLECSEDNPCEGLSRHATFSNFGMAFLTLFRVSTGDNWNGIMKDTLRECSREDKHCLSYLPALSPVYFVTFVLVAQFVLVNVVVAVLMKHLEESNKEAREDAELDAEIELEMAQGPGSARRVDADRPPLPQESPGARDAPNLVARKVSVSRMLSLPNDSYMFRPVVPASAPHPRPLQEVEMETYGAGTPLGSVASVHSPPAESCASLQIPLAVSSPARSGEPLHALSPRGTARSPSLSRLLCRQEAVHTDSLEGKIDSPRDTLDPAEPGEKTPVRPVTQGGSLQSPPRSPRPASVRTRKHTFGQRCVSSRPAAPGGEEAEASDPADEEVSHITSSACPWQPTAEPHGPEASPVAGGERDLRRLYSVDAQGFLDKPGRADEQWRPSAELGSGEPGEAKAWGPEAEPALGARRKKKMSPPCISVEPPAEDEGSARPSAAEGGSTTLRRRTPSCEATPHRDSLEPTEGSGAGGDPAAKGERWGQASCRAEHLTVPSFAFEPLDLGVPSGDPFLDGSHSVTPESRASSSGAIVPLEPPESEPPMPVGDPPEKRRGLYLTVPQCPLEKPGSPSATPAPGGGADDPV
# Chain of Intestinal-type alkaline phosphatase (Mus musculus, UniProt P24822) (P24822 whole entry): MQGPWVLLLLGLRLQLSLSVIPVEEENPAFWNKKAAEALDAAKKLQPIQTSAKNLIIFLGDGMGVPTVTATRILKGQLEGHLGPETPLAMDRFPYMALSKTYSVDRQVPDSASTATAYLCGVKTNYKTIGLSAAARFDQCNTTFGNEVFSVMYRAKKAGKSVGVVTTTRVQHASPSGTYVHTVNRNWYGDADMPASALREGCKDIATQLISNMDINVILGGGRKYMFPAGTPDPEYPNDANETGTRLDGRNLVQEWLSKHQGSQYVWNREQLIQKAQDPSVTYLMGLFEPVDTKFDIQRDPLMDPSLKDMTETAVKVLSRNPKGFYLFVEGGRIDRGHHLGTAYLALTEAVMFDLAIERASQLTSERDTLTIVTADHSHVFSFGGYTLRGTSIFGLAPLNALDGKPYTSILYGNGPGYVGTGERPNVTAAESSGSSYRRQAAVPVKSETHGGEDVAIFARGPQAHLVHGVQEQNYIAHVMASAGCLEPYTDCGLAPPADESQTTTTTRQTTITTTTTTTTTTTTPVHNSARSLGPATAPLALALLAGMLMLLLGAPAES
structure (smiles),measurement,setting,value
COc1cccc(C(C)NC(=O)Nc2cccc(C(F)(F)F)c2)c1 (centres undefined),IC50,[1],3.21 µM (active)
same,IC50,[2],> 100 µM (inactive)
same,EC50,[3],> 100 µM (inactive)
CCCCN(CC)S(=O)(=O)c1ccc(C(=O)Nc2nnc(-c3cccs3)o2)cc1,EC50,[4],5.48 µM (active)
same,EC50,[5],1.22 µM (active)
same,CC50,[6],4.23 µM (active)
same,IC50,cells,4.66 µM (active)
same,EC50,[7],2.67 µM (active)
same,CC50,[8],9.5 µM (active)
same,CC50,[9],3.18 µM (active)
CCCC(NCC(O)COc1ccc(-c2ccccc2)cc1)c1ccccc1 (centres undefined),CC50,[10],12.6 µM (active)
same,EC50,[4],17.6 µM (active)
same,EC50,[5],2.1 µM (active)
same,CC50,[6],12.7 µM (active)
same,IC50,cells,12 µM (active)
same,CC50,[8],> 20 µM (active)
same,IC50,Protein skinhead-1,> 100 µM (inactive)
same,CC50,[9],15.7 µM (active)
COc1ccc(C(C(=O)NC2CCCCC2)N(C(=O)CCl)c2ccc(OC)cc2)cc1 (centres undefined),AC50,[11],5.56 µM (active)
same,IC50,[12],> 80 µM (inactive)
same,AC50,[13],> 70 µM (inactive)
same,AC50,[14],14.8 µM (active)
same,EC50,[15],1.26 µM (active)
same,EC50,[16],0.959 µM (active)
same,EC50,BJ [17],1.15 µM (inconclusive)
same,EC50,BJ [18],5.19 µM (active)
same,EC50,[19],0.721 µM (active)
same,EC50,BJ [20],8.28 µM (inconclusive)
same,AC50,[21],9.27 µM (active)
